Measurements from patent US10934310B2, “Inhibitors of Bruton's tyrosine kinase and method of their use” (JANSSEN PHARMACEUTICA NV, priority 2015, dated 2021).

biological target: unphosphorylated-BTK kinase domain (UP-BTK), GST-tagged human BTK (389-659aa) (Homo sapiens (Human), UniProt Q06187); experiment: BTK Kinase Lanthascreen Binding Assay; details: Lanthascreen binding, 60 minutes incubation; pIC50 = negative log of the IC50 in molar
Protocol: BTK Kinase Lanthascreen Binding Assay:
A BTK kinase lanthascreen binding assay monitors compound binding to unphosphorylated-BTK kinase domain (UP-BTK), by competing with a fluorescent labeled tracer. […] Data were analyzed using Xlfit™ version 5.3 from ID Business Solutions (Guildford), Microsoft Excel add-in. pIC50 refers to the negative log of the IC50 in molar.

Chain of unphosphorylated-BTK kinase domain (UP-BTK), GST-tagged human BTK (389-659aa) (Q06187 389-659): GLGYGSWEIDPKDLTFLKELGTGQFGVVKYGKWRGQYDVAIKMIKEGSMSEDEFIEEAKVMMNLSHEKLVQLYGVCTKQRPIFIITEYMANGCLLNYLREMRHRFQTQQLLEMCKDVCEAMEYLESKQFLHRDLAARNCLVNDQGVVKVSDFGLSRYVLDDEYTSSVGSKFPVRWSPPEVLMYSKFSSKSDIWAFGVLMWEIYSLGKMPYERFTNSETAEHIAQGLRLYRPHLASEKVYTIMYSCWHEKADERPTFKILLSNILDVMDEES

BTK_I_binding pIC50	SMILES
8.60	C=CC(=O)N[C@H]1CCCC[C@H]1NC(=O)c1sc2nccc3c2c1NC(=O)N3c1ccc(Oc2ccccc2)cn1 [Example 291, N-((1R,2S)-2-Acrylamidocyclohexyl)-4-oxo-5-(5-phenoxypyridin-2-yl)-4,5-dihydro-3H-1-thia-3,5,8-triazaacenaphthylene-2-carboxamide]
8.39	C=CC(=O)N[C@H]1CCC[C@H]1NC(=O)c1sc2nccc3c2c1NC(=O)N3c1ncc(Oc2ccccc2)cn1 [Example 296, N-((1R,2S)-2-acrylamidocyclopentyl)-4-oxo-5-(5-phenoxypyrimidin-2-yl)-4,5-dihydro-3H-1-thia-3,5,8-triazaacenaphthylene-2-carboxamide]
8.53	C=CC(=O)N[C@H]1CCCC[C@H]1NC(=O)c1sc2nccc3c2c1NC(=O)N3c1ncc(Oc2ccccc2)cn1 [Example 297, N-((1R,2S)-2-Acrylamidocyclohexyl)-4-oxo-5-(5-phenoxypyrimidin-2-yl)-4,5-dihydro-3H-1-thia-3,5,8-triazaacenaphthylene-2-carboxamide]
8.09	C=CC(=O)N[C@H]1CCC[C@H]1NC(=O)c1sc2nccc3c2c1NC(=O)N3c1cnc(CC(C)C)cc1C [Example 298, N-((1R,2S)-2-Acrylamidocyclopentyl)-5-(S)-(6-isobutyl-4-methylpyridin-3-yl)-4-oxo-4,5-dihydro-3H-1-thia-3,5,8-triazaacenaphthylene-2-carboxamide]
8.23	C=CC(=O)N[C@H]1CCCC[C@H]1NC(=O)c1sc2nccc3c2c1NC(=O)N3c1cnc(Oc2ccccc2)nc1 [Example 302, N-((1R,2S)-2-Acrylamidocyclohexyl)-4-oxo-5-(2-phenoxypyrimidin-5-yl)-4,5-dihydro-3H-1-thia-3,5,8-triazaacenaphthylene-2-carboxamide]

SMILES	BTK_I_binding pIC50
C=CC(=O)N[C@H]1CCCC[C@H]1NC(=O)c1sc2nccc3c2c1NC(=O)N3c1cnc(Oc2ccccc2)cn1 [Example 295, N-((1R,2S)-2-Acrylamidocyclohexyl)-4-oxo-5-(5-phenoxypyrazin-2-yl)-4,5-dihydro-3H-1-thia-3,5,8-triazaacenaphthylene-2-carboxamide]	8.39

same assay, conditions: compound, 50 nM Tracer 236, 2 nM anti-GST antibody, 60 minutes; pIC50 = negative log of the IC50 in molar

BTK_I_binding pIC50	SMILES
6.47	N[C@H]1CCCC[C@H]1NC(=O)c1sc2nccc3c2c1NC(=O)N3c1ccc(Oc2ccccc2)nc1 [Example 257, N-((1R,2S)-2-Aminocyclohexyl)-4-oxo-5-(6-phenoxypyridin-3-yl)-4,5-dihydro-3H-1-thia-3,5,8-triazaacenaphthylene-2-carboxamide]
6.45	N[C@H]1CCCC[C@H]1NC(=O)c1sc2nccc3c2c1NC(=O)N3c1ccnc(-c2ccccc2)c1 [Example 260, N-((1R,2S)-2-Aminocyclohexyl)-4-oxo-5-(2-phenylpyridin-4-yl)-4,5-dihydro-3H-1-thia-3,5,8-triazaacenaphthylene-2-carboxamide]
6.24	N[C@H]1CCC[C@H]1NC(=O)c1sc2nccc3c2c1NC(=O)N3c1ccc(Oc2ccccc2)nc1 [Example 265, N-((1R,2S)-2-Aminocyclopentyl)-4-oxo-5-(6-phenoxypyridin-3-yl)-4,5-dihydro-3H-1-thia-3,5,8-triazaacenaphthylene-2-carboxamide]
6.21	N[C@H]1CCC[C@H]1NC(=O)c1sc2nccc3c2c1NC(=O)N3c1cc(-c2ccccc2)ccn1 [Example 267, N-((1R,2S)-2-Aminocyclopentyl)-4-oxo-5-(4-phenylpyridin-2-yl)-4,5-dihydro-3H-1-thia-3,5,8-triazaacenaphthylene-2-carboxamide]
6.00	N[C@@H]1CCC[C@H]1NC(=O)c1sc2nccc3c2c1NC(=O)N3c1ccc(Oc2ccccc2)nc1 [Example 269, N-((1R,2R)-2-Aminocyclopentyl)-4-oxo-5-(6-phenoxypyridin-3-yl)-4,5-dihydro-3H-1-thia-3,5,8-triazaacenaphthylene-2-carboxamide]

SMILES	BTK_I_binding pIC50
N[C@H]1CCC[C@H]1NC(=O)c1sc2nccc3c2c1NC(=O)N3c1ccnc(-c2ccccc2)c1 [Example 263, N-((1R,2S)-2-Aminocyclopentyl)-4-oxo-5-(2-phenylpyridin-4-yl)-4,5-dihydro-3H-1-thia-3,5,8-triazaacenaphthylene-2-carboxamide]	6.38

same assay, conditions: read-out: BTK_I_binding pIC50 (converted)

IC50 [nM]	SMILES
> 1000	CC(=O)N[C@@H]1CCC[C@@H]1NC(=O)c1sc2nccc3c2c1NC(=O)N3c1ccnc(-c2ccccc2)c1 [Example 258, N-((1S,2R)-2-Acetamidocyclopentyl)-4-oxo-5-(2-phenylpyridin-4-yl)-4,5-dihydro-3H-1-thia-3,5,8-triazaacenaphthylene-2-carboxamide]
> 1000	CC(C)c1cc(N2C(=O)Nc3c(C(=O)N[C@@H]4CCC[C@@H]4N)sc4nccc2c34)ccn1 [Example 270, N-((1R,2S)-2-Aminocyclopentyl)-5-(2-isopropylpyridin-4-yl)-4-oxo-4,5-dihydro-3H-1-thia-3,5,8-triazaacenaphthylene-2-carboxamide]
> 1000	CC(C)Oc1ccc(N2C(=O)Nc3c(C(=O)N[C@@H]4CCC[C@@H]4N)sc4nccc2c34)cc1 [Example 271, N-((1R,2S)-2-Aminocyclopentyl)-5-(4-isopropoxyphenyl)-4-oxo-4,5-dihydro-3H-1-thia-3,5,8-triazaacenaphthylene-2-carboxamide]
> 1000	N[C@@H]1CCCC[C@H]1NC(=O)c1sc2nccc3c2c1NC(=O)N3c1ccc(Oc2ccccc2)nc1 [Example 277, N-((1R,2R)-2-Aminocyclohexyl)-4-oxo-5-(6-phenoxypyridin-3-yl)-4,5-dihydro-3H-1-thia-3,5,8-triazaacenaphthylene-2-carboxamide]
> 1000	N[C@H]1CCC[C@H]1NC(=O)c1sc2nccc3c2c1NC(=O)N3c1cnnc(-c2ccccc2)c1 [Example 278, N-((1R,2S)-2-Aminocyclopentyl)-4-oxo-5-(6-phenylpyridazin-4-yl)-4,5-dihydro-3H-1-thia-3,5,8-triazaacenaphthylene-2-carboxamide]
> 1000	C=CC(=O)N[C@H]1CCC[C@H](NC(=O)c2sc3nccc4c3c2NC(=O)N4c2ccnc(-c3ccccc3)c2)C1 [Example 279, N-((1S,3S)-3-Acrylamidocyclohexyl)-4-oxo-5-(2-phenylpyridin-4-yl)-4,5-dihydro-3H-1-thia-3,5,8-triazaacenaphthylene-2-carboxamide]
> 1000	CC(=O)N[C@H]1CCC[C@H]1NC(=O)c1sc2nccc3c2c1NC(=O)N3c1ccnc(-c2ccccc2)c1 [Example 280, N-((1R,2S)-2-Acetamidocyclopentyl)-4-oxo-5-(2-phenylpyridin-4-yl)-4,5-dihydro-3H-1-thia-3,5,8-triazaacenaphthylene-2-carboxamide]
> 1000	N[C@H]1CCC[C@H]1NC(=O)c1sc2nccc3c2c1NC(=O)N3c1cc(-c2ccccc2)ncn1 [Example 281, N-((1R,2S)-2-Aminocyclopentyl)-4-oxo-5-(6-phenylpyrimidin-4-yl)-4,5-dihydro-3H-1-thia-3,5,8-triazaacenaphthylene-2-carboxamide]
> 1000	C=CC(=O)N[C@H]1CC[C@H](NC(=O)c2sc3nccc4c3c2NC(=O)N4c2ccnc(-c3ccccc3)c2)C1 [Example 282, N-((1S,3S)-3-Acrylamidocyclopentyl)-4-oxo-5-(2-phenylpyridin-4-yl)-4,5-dihydro-3H-1-thia-3,5,8-triazaacenaphthylene-2-carboxamide]
> 1000	C=CC(=O)N[C@H]1CCC[C@@H](NC(=O)c2sc3nccc4c3c2NC(=O)N4c2ccnc(-c3ccccc3)c2)C1 [Example 283, N-((1R,3S)-3-Acrylamidocyclohexyl)-4-oxo-5-(2-phenylpyridin-4-yl)-4,5-dihydro-3H-1-thia-3,5,8-triazaacenaphthylene-2-carboxamide]
> 1000	N[C@H]1CCC[C@H]1NC(=O)c1sc2nccc3c2c1NC(=O)N3c1cncc(-c2ccccc2)c1 [Example 284, N-((1R,2S)-2-Aminocyclopentyl)-4-oxo-5-(5-phenylpyridin-3-yl)-4,5-dihydro-3H-1-thia-3,5,8-triazaacenaphthylene-2-carboxamide]
> 1000	N[C@H]1CCC[C@H]1NC(=O)c1sc2nccc3c2c1NC(=O)N3c1cccc(-c2ccccn2)c1 [Example 285, N-((1R,2S)-2-Aminocyclopentyl)-4-oxo-5-(3-(pyridin-2-yl)phenyl)-4,5-dihydro-3H-1-thia-3,5,8-triazaacenaphthylene-2-carboxamide]
> 1000	CNCC(=O)N[C@@H]1CCC[C@@H]1NC(=O)c1sc2nccc3c2c1NC(=O)N3c1ccnc(-c2ccccc2)c1 [Example 286, N-((1S,2R)-2-(2-(Methylamino)acetamido)cyclopentyl)-4-oxo-5-(2-phenylpyridin-4-yl)-4,5-dihydro-3H-1-thia-3,5,8-triazaacenaphthylene-2-carboxamide]
> 1000	Cc1cc(OC2CCOCC2)ccc1N1C(=O)Nc2c(C(=O)N[C@@H]3CCC[C@@H]3N)sc3nccc1c23 [Example 287, N-((1R,2S)-2-Aminocyclopentyl)-5-(2-methyl-4-((tetrahydro-2H-pyran-4-yl)oxy)phenyl)-4-oxo-4,5-dihydro-3H-1-thia-3,5,8-triazaacenaphthylene-2-carboxamide]
> 1000	N[C@H]1CCC[C@H]1NC(=O)c1sc2nccc3c2c1NC(=O)N3c1ccc(OC2CCOCC2)cc1 [Example 288, N-((1R,2S)-2-Aminocyclopentyl)-4-oxo-5-(4-((tetrahydro-2H-pyran-4-yl)oxy)phenyl)-4,5-dihydro-3H-1-thia-3,5,8-triazaacenaphthylene-2-carboxamide]

SMILES	IC50 [nM]
O=C(N[C@@H]1CCC[C@H]1O)c1sc2nccc3c2c1NC(=O)N3c1ccnc(-c2ccccc2)c1 [Example 268, N-((1R,2R)-2-Hydroxycyclopentyl)-4-oxo-5-(2-phenylpyridin-4-yl)-4,5-dihydro-3H-1-thia-3,5,8-triazaacenaphthylene-2-carboxamide]	631
